Experimental data taken from patent US8466193B2, “Selective inhibitors of histone deacetylase” (Pharmacyclics, Inc., priority 2008, dated 2013).

Experiments:
HDAC1 = HDAC1 (Homo sapiens, UniProt Q13547); assay: Histone deacetylase activity, continuous trypsin-coupled assay; format: biochemical; settings: 15 minutes preincubation; substrate acetyl-Gly-Ala-(N-acetyl-Lys)-AMC
Method: (§1) HDAC activity was measured using a continuous trypsin-coupled assay that has been described in detail previously (US 20070281934; Schultz et. al., Biochemistry, 43 (34), 11083-11091, 2004; Kim et al. (2006), Methods Mol. Biol., 325:273-283). For inhibitor characterization, measurements were performed in a reaction volume of 100 μL using 96-well assay plates in a fluorescence plate reader. For each isozyme, the HDAC protein in reaction buffer (50 mM HEPES, 100 mM KCl, 0.001% Tween-20, 5% DMSO, pH 7.4, supplemented with bovine serum albumin at concentrations of 0-0.05%, was mixed with inhibitor at various concentrations and allowed to incubate for 15 minutes. Trypsin was added to a final concentration of 50 nM, and acetyl-Gly-Ala-(N-acetyl-Lys)-AMC was added to a final concentration of 25-100 μM to initiate the reaction. After a 30 minute lag time, the fluorescence was measured over a 30 minute time frame using an excitation wavelength of 355 nm and a detection wavelength of 460 nm. The increase in fluorescence with time was used as the measure of the reaction rate. Inhibition constants Ki(app) were obtained using the program BatchKi (Biokin, Pullman, Wash.).

HDAC6 = molecular target: T1, HDAC6 (Homo sapiens, UniProt Q9UBN7); assay: as above; format: biochemical; settings: 15 minutes preincubation; substrate acetyl-Gly-Ala-(N-acetyl-Lys)-AMC
T1 sequence (Q9UBN7 1-1215): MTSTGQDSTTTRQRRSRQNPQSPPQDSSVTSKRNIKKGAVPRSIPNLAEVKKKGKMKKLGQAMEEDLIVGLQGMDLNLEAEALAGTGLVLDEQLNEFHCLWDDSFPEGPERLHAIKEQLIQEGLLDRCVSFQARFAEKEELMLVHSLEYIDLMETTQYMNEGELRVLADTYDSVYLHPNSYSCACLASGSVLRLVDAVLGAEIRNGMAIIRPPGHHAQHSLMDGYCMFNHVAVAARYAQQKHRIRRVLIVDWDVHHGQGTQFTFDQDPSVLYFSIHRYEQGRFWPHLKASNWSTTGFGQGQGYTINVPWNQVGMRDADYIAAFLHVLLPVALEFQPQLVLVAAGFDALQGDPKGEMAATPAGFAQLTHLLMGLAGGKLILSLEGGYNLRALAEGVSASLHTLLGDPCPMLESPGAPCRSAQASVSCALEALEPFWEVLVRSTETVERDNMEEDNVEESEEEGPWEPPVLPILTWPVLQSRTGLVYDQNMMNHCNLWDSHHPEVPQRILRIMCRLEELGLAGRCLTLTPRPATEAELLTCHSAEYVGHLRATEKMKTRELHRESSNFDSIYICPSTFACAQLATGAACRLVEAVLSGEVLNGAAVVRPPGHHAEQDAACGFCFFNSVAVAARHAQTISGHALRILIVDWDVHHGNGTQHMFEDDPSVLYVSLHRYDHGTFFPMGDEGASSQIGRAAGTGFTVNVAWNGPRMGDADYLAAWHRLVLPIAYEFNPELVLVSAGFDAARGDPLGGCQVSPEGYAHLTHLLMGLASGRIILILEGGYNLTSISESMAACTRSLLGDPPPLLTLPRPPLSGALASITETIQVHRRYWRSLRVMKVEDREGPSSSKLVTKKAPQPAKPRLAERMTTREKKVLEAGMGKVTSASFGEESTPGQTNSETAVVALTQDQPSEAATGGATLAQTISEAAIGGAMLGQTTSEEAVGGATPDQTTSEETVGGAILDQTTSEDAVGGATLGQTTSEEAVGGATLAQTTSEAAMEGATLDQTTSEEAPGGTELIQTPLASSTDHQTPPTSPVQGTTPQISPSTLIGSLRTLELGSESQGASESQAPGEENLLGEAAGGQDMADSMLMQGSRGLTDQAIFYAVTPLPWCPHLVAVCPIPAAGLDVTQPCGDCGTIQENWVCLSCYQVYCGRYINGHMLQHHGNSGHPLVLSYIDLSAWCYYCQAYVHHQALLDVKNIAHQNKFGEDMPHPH
Method: as §1

HDAC8 = molecular target: T2, HDAC8 (Homo sapiens, UniProt Q9BY41); assay: as above; format: biochemical; settings: 15 minutes preincubation; substrate acetyl-Gly-Ala-(N-acetyl-Lys)-AMC
T2 sequence (Q9BY41 1-377): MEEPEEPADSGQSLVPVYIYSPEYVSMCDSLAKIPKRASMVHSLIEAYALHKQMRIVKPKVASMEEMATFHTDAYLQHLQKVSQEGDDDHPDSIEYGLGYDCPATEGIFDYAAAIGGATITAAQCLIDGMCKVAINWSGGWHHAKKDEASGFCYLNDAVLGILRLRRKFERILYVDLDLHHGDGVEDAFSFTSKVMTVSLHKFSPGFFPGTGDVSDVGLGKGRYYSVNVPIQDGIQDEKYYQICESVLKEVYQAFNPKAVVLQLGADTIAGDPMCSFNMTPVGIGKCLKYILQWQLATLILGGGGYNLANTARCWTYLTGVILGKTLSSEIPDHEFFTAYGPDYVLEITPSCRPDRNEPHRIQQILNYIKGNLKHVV
Method: as §1

Jurkat cells = assay: Cell proliferation assay, growth inhibition by Alamar Blue; format: cell-based; settings: Homo sapiens, 72 h, Jurkat cells treated with compound for 3 days

Chain of HDAC1 (Q13547 whole entry, species assumed): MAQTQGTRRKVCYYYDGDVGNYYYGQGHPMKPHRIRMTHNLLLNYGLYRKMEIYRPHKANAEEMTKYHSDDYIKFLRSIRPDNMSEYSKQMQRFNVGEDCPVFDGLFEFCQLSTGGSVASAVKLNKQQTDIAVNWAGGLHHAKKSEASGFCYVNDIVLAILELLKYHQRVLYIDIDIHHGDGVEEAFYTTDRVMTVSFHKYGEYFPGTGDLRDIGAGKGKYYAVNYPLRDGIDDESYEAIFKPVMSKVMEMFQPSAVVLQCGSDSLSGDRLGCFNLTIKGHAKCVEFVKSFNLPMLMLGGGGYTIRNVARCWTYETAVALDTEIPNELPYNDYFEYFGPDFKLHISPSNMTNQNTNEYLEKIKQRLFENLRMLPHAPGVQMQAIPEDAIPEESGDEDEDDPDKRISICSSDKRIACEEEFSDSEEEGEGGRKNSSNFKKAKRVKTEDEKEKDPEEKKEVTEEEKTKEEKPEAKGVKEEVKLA

- IC50 (HDAC1): > 10 µM
- IC50 (HDAC6): > 10 µM
- IC50 (HDAC8): < 1 µM
- GI50 (Jurkat cells): 2.8 µM
Structure (SMILES): O=C(NO)c1ccc2ccn(CCOc3ccccc3)c2c1 [Compound 316, N-hydroxy-1-(2-phenoxyethyl)-1H-indole-6-carboxamide]
